# Where two headings read alike, the source gives them in different places.
# Key:
# [1] = tested on: human cervix epitheloid carcinoma (HeLa) cell line; assay: Microculture Tetrazolium Test (MTT assay), cytotoxicity in HeLa cell line; format: cell-based
# Description: The cytotoxicity of the complexes was tested by using human cervix epitheloid carcinoma (HeLa) cell line. In this respect the following method was selected.
# The antiproliferation activity of these nitridoosmium compounds was examined on human tumor cell lines in the Microculture Tetrazolium Test (MTT assay) with continuous active substance exposition (24 h for compound 1-7; 48 h for compound 8-11). In this regard, adherent monolayer cultures of HeLa cell line were used.
# Culture conditions: The cells were kept in 10 cm^2 culture plates at 37° C. and moist atmosphere (5% CO2). Dulbecco's Modified Eagle's Medium (DMEM) was used as culture medium, with 1% antibiotic-antimycotic and 10% fetal bovine serum.
# Test execution: Cell were harvested from culture plates by trypsinization and seeded in 100 μL aliquots in complete culture medium into 96-well microculture plates. Cell density of about 4800 cells/well was chosen in order to ensure exponential growth throughout drug exposure. Cells were allowed to settle for 24 h, followed by the addition of dilutions of the test compounds, which were dissolved in DMSO, in 100 μL/well complete culture medium (<1% DMSO) and incubation for 24 h (compound 1-7) or 48 h (compound 8-11). At the end of exposure, drug solutions were replaced by 100 μL/well DMEM medium with 10% MTT solution in phosphate-buffered saline (5 mg/ml PBS). After incubation for 1 h at 37° C., medium was removed, and the reduced formazan product formed by the metabolic activity of vital cells was dissolved in 100 μL DMSO per well. Optical densities at a wavelength of 570 nm were measured with a microplate reader. The quantity of vital cells was expressed in terms of T/C values by comparison to untreated control microcultures, and IC50 values were calculated from concentration-effect curves by logarithmic interpolation. Evaluation is based on means from at least three independent experiments, each comprising four replicates per concentration level.
# [2] = tested on: human non-small cell lung cancer cells NCI-H460; conditions: for tumor weight: twice a week, eight injections, end of study (30 days), Mean ± SD; for inhibition rate (%): tumor growth inhibition by tumor weight vs negative group
# Description: In vitro cultured human non-small cell lung cancer cells NCI-H460 (from ATCC) were inoculated in nude mice (SPF grade BALB/c-nu male nude mice were purchased from Medical Laboratory Animal Center, Guangdong Province) subcutaneously. The in vivo anti-cancer properties of Os1 (Compound 8) and Os2 (Compound 1) given by intraperitoneal injection were examined by measuring the tumor nodule size of the nude mice.
# Each nude mouse was inoculated subcutaneously with 0.2 mL of 7.5×10^6 cells/mL of NCI-H460 cells suspended in culture medium.
# Experimental Procedure: 16-18 g male BALB/c-nu nude mice were inoculated subcutaneously 0.2 mL of the NCI-H460 cell suspension (1.5×10^6 cells/rats). The day after inoculation (administration day 1), the nude mice were randomly divided into eight groups and were grouped as follows:
# 1) positive group (cyclophosphamide 30.0 mg/kg, intraperitoneal injection)
# 2) negative group (20% PET, intraperitoneal injection)
# 3) Os1 groups (three treatment groups: 10, 3, 1 mg/kg, intraperitoneal injection)
# 4) Os2 groups (three treatment groups: 10, 3, 1 mg/kg, intraperitoneal injection)
# Mice in each group were received treatment twice a week, with a total number of eight injections. Tumor sizes were measured every 3 days. The treated mice were sacrificed at the end of the study period (30 days) with anatomical separation of tumor nodules. The tumors were weighed and photographed.
# The inhibition rate of tumor growth was determined using the following formula: Tumor growth inhibition rate (%)=(1−mean tumor weight of the treatment/mean tumor weight of the negative group)×100%. Tumor volume=longest dimension (mm)×[shortest dimension of the tumor (mm)]^2/2. All measurements were expressed in Mean±SD, using SPSS 10.0 for statistical analysis.
# [3] = tested on: HeLa cells; assay: MTT assay of Compound 8 with and without cisplatin; format: cell-based, human; conditions: for IC50: MTT, 3 days incubation
# Description: Compound 8 was tested in the MTT assay to determine its effects with and without cisplatin (see FIG. 1). Assays of cytotoxicity were conducted in 96-well, flat-bottomed microtitre plates. The supplemented culture medium (MEM, 40 μL) with HeLa cells (1×10^5 cells per mL) was added to the wells. Compound 8 was dissolved in the culture medium with 0.5% DMSO with concentrations ranged from 5 μM to 100 μM, and aliquots (10 μL) of the solutions were subsequently added to a set of wells containing the HeLa cells. To examine the synergistic effect of cisplatin, cisplatin was dissolved in the culture medium in order to prepare solutions with concentrations of 0, 0.2, 2 and 6 μM. Aliquots of the cisplatin solutions (50 μL) were added to different sets of the wells containing compound 8 and the HeLa cells. Cells for control experiments were treated with supplemented media with 0.5% DMSO (100 μL). The microtitre plates were incubated at 37° C. in a humidified atmosphere of 5% CO2/95% air for a further 3 days. Assessment of cytotoxicity was carried out by using a modified method of the Mosmann-based 3-(4,5-dimethylthiazol-2-yl)-2,5-diphenyltetrazolium bromide (MTT) assay [T. Mosmann, J. Immunol. Methods 1983, 65, 55]. At the end of the incubation period, MTT solution (10 μL, Cell Proliferation Kit I, Roche) was added into each well and the cultures were incubated further for 4 h at 37° C. in a humidified atmosphere of 5% CO2/95% air. A solubilizing solution (100 μL) was added into wells to lyse the cells and to solubilize the formed formazan complex. The microtitre plates were maintained in a dark, humidified chamber overnight. The formation of formazan was measured by using a microtitre plate reader at 550 nm and the percentages of cell survival were determined. The cytotoxicity was evaluated based on the percentage cell survival in a dose-dependent manner relative to the control.
compound,measurement,setting,value
[Os^VI(N)(pyrazole)2Cl3] [Compound 8],IC50,[1]; 48 h exposure (compound 8-11),< 25 µM
same,Tumor volume/mm^3,"[2]; 1 mg/kg i.p., day 14",288.12 mm^3
same,Tumor volume/mm^3,"[2]; 1 mg/kg i.p., day 18",518.99 mm^3
same,Tumor volume/mm^3,"[2]; 1 mg/kg i.p., day 22",801.59 mm^3
same,Tumor volume/mm^3,"[2]; 1 mg/kg i.p., day 26",1319.35 mm^3
same,Tumor volume/mm^3,"[2]; 1 mg/kg i.p., day 30",1569.69 mm^3
same,tumor weight,[2]; 1 mg/kg i.p.,1.7206 ± 0.4289 g
same,Tumor volume/mm^3,"[2]; 3 mg/kg i.p., day 14",482.89 mm^3
same,Tumor volume/mm^3,"[2]; 3 mg/kg i.p., day 18",1043.37 mm^3
same,Tumor volume/mm^3,"[2]; 3 mg/kg i.p., day 22",1140.42 mm^3
same,Tumor volume/mm^3,"[2]; 3 mg/kg i.p., day 26",1537.35 mm^3
same,Tumor volume/mm^3,"[2]; 3 mg/kg i.p., day 30",2262.38 mm^3
same,tumor weight,[2]; 3 mg/kg i.p.,2.0631 ± 1.1693 g
same,Tumor volume/mm^3,"[2]; 10 mg/kg i.p., day 14",534.98 mm^3
same,Tumor volume/mm^3,"[2]; 10 mg/kg i.p., day 18",901.64 mm^3
same,Tumor volume/mm^3,"[2]; 10 mg/kg i.p., day 22",1422.37 mm^3
same,Tumor volume/mm^3,"[2]; 10 mg/kg i.p., day 26",2004.80 mm^3
same,Tumor volume/mm^3,"[2]; 10 mg/kg i.p., day 30",2511.59 mm^3
same,tumor weight,[2]; 10 mg/kg i.p.,2.7711 ± 1.0732 g
same,inhibition rate (%),[2]; 1 mg/kg i.p.,26.73%
same,inhibition rate (%),[2]; 3 mg/kg i.p.,12.14%
same,inhibition rate (%),[2]; 10 mg/kg i.p.,−18.01%
same,effectiveness in the MTT assay compared with cisplatin,[3],more effective than cisplatin
same,IC50,[3]; single agent,3.8 µM
same,IC50,[3]; with cisplatin 0.1 μM,4.19 µM
same,IC50,[3]; with cisplatin 1.0 μM,3.38 µM
same,IC50,[3]; with cisplatin 3.0 μM,4.7 µM
same,synergistic effect of cisplatin administered with the compound,[3]; cisplatin 0.1-3.0 μM,does not provide any synergistic effect
[Os^VI(N)(salpa)(OH2)Cl] [Compound 1],IC50,[1]; 24 h exposure (compound 1-7),< 25 µM
same,Tumor volume/mm^3,"[2]; 1 mg/kg i.p., day 14",380.21 mm^3
same,Tumor volume/mm^3,"[2]; 1 mg/kg i.p., day 18",710.06 mm^3
same,Tumor volume/mm^3,"[2]; 1 mg/kg i.p., day 22",726.71 mm^3
same,Tumor volume/mm^3,"[2]; 1 mg/kg i.p., day 26",1365.02 mm^3
same,Tumor volume/mm^3,"[2]; 1 mg/kg i.p., day 30",1110.38 mm^3
same,tumor weight,[2]; 1 mg/kg i.p.,1.2164 ± 0.6547 g
same,Tumor volume/mm^3,"[2]; 3 mg/kg i.p., day 14",420.80 mm^3
same,Tumor volume/mm^3,"[2]; 3 mg/kg i.p., day 18",500.45 mm^3
same,Tumor volume/mm^3,"[2]; 3 mg/kg i.p., day 22",1011.29 mm^3
same,Tumor volume/mm^3,"[2]; 3 mg/kg i.p., day 26",1032.38 mm^3
same,Tumor volume/mm^3,"[2]; 3 mg/kg i.p., day 30",1390.62 mm^3
same,tumor weight,[2]; 3 mg/kg i.p.,1.3542 ± 0.5337 g
same,Tumor volume/mm^3,"[2]; 10 mg/kg i.p., day 14",507.33 mm^3
same,Tumor volume/mm^3,"[2]; 10 mg/kg i.p., day 18",671.87 mm^3
same,Tumor volume/mm^3,"[2]; 10 mg/kg i.p., day 22",1342.17 mm^3
same,Tumor volume/mm^3,"[2]; 10 mg/kg i.p., day 26",1601.47 mm^3
same,Tumor volume/mm^3,"[2]; 10 mg/kg i.p., day 30",2188.17 mm^3
same,tumor weight,[2]; 10 mg/kg i.p.,2.1535 ± 1.4884 g
same,deaths of treated mice,[2]; high-dose group (10 mg/kg i.p.),one treated mouse died at day 7 and one died at day 19
same,deaths of treated mice,[2]; middle dose group (3 mg/kg i.p.),one treated mouse died at day 23 and one died at day 26
same,inhibition rate (%),[2]; 1 mg/kg i.p.,48.20%
same,inhibition rate (%),[2]; 3 mg/kg i.p.,42.33%
same,inhibition rate (%),[2]; 10 mg/kg i.p.,8.29%
[Os^VI(N)(5-NO2salpa)(OH2)Cl] [Compound 6],IC50,[1]; 24 h exposure (compound 1-7),< 100 µM
"Cc1cc(C)[nH]n1.Cc1cc(C)[nH]n1.[N]#[Os]([Cl])([Cl])[Cl] [Compound 10, trans-[Os^VI(N)(3,5-dimethylpyrazole)2Cl3]]",IC50,[1]; 48 h exposure (compound 8-11),< 100 µM
"N.N.[Cl][Pt][Cl] [Cisplatin, cisplatin, reference compound]",IC50,[3]; single agent,7.5 µM
[Os^VI(N)(5-Clsalpa)(OH2)Cl] [Compound 2],IC50,[1]; 24 h exposure (compound 1-7),< 25 µM
[Os^VI(N)(5-Brsalpa)(OH2)Cl] [Compound 3],IC50,[1]; 24 h exposure (compound 1-7),< 25 µM
"O=P1(N(CCCl)CCCl)NCCCO1 (centres unmarked) [positive control, cyclophosphamide, reference compound]",Tumor volume/mm^3,"[2]; 30 mg/kg i.p., day 14",168.16 mm^3
same,Tumor volume/mm^3,"[2]; 30 mg/kg i.p., day 18",227.03 mm^3
same,Tumor volume/mm^3,"[2]; 30 mg/kg i.p., day 22",318.64 mm^3
same,Tumor volume/mm^3,"[2]; 30 mg/kg i.p., day 26",378.31 mm^3
same,Tumor volume/mm^3,"[2]; 30 mg/kg i.p., day 30",778.84 mm^3
same,tumor weight,[2]; 30.0 mg/kg i.p.,0.6095 ± 0.5477 g
same,inhibition rate (%),[2]; 30.0 mg/kg i.p.,74.04%
tran-[Os^VI(N)(indazole)2Cl3] [Compound 9],IC50,[1]; 48 h exposure (compound 8-11),< 25 µM
[Os^VI(N)(5-Mesalpa)(OH2)Cl] [Compound 4],IC50,[1]; 24 h exposure (compound 1-7),< 25 µM
[Os^VI(N)(5-MeOsalpa)(OH2)Cl] [Compound 5],IC50,[1]; 24 h exposure (compound 1-7),< 25 µM
"Cc1ccn[nH]1.Cc1ccn[nH]1.[N]#[Os]([Cl])([Cl])[Cl] [Compound 11, trans-[Os^VI(N)(5-methylpyrazole)2Cl3]]",IC50,[1]; 48 h exposure (compound 8-11),< 100 µM

# Source: US8383673B2, “Nitridoosmium(VI) complexes for treatment of cancer” (priority 2010, dated 2013)
